Like-named read-outs stand apart in the source and are kept apart here.
Columns and labels:
HeLa MKYP cells [1] = assay: Toxicity / cell death measured by DAPI staining (take-up); type: cell-based; settings: 50 μM; for Toxicity (% positive for DAPI take-up at 50 μM)*: Table 3 Supplement A
Procedure: H2O2 treatment was performed as a control for cell death as measured by DAPI staining.
(§1) Briefly, HeLa MKYP cells were plated at 10,000 cells/well in 96 well plates along with compounds at various concentrations. Following 16 hrs of incubation, cells were treated with 1 uM FCCP/oligomycin for 6 hours, then analyzed via FACS for the presence of mitochondria in lysosomes (as determined by an emissions spectrum shift from the pH-sensitive mtKeima tag).

HeLa MKYP cells [2] = assay: Human mitophagy assay (HeLa MKYP, mtKeima FACS, FCCP/oligomycin); type: cell-based; settings: for activation at 1.6 µM / activation at 6.3 µM: 6 h, read-out: Potency at 1 μM F/O toxin*; for activation at 1.6 µM: Table 2, % activation of mitophagy at 1.6 μM treatment of the compound; for activation at 6.3 µM: % activation of mitophagy at 6.3 μM treatment of the compound
Procedure: as §1, with “tag). Examples are shown in FIG. 1 through FIG. 13 below.” for “tag).”

[3] = Homo sapiens, HeLa, Table 3, read-out: Potency at 1 μM F/O toxin* (EC50 of mitophagy activation)
[4] = Homo sapiens, HeLa, Table 3 Supplement A, as measured in Table 3, read-out: Potency (EC50 Max Mitophagy) (μM)*

| SMILES | Toxicity (% positive for DAPI takeup @ 50 μM) (HeLa MKYP cells [1]; Table 3) [%] | Toxicity (% positive for DAPI take-up at 50 μM)* (HeLa MKYP cells [1]) [%] | EC50 (HeLa MKYP cells [2]; [3]) [µM] | EC50 (HeLa MKYP cells [2]; [4]) [µM] | also measured |
| --- | --- | --- | --- | --- | --- |
| c1ccc2c(c1)CC[C@@H]2Nc1ncnc2[nH]cnc12 [Compound 54] | 16.2 | 16.16 | 4.4 | 4.38 |  |
| CN1CC[C@H](Nc2ncnc3[nH]c(C(F)(F)F)cc23)c2ccccc21 [Compound 80] | 28.1 | 8.7 | 1.9 | 1.81 |  |
| c1coc(CNc2ncnc3[nH]c(C4CCC4)nc23)c1 [EP-0035338, 8-cyclobutyl-N-(2-furylmethyl)-9H-purin-6-amine] |  | 3.04 |  | > 25 |  |
| CC(Nc1ncnc2[nH]c(C(F)(F)F)cc12)c1ccccc1 (centres unmarked) [Compound 12] |  |  |  |  | Toxicity (% positive for DAPI takeup @ 50 μM) (HeLa MKYP cells [1]; Table 2): 2.4%; activation at 1.6 µM (HeLa MKYP cells [2]; Homo sapiens, HeLa): 88.4% |
| CCCCNc1ncnc2[nH]c(C3CCC3)nc12 [Compound 31] | 6.1 |  | > 50 |  |  |
| CCCCNc1ncnc2[nH]c(C3CC3)nc12 [Compound 34886, N-butyl-8-cyclopropyl-9H-purin-6-amine] |  |  |  |  | Toxicity (% positive for DAPI takeup @ 50 μM) (HeLa MKYP cells [1]; Table 4): 9.1%; EC50 (HeLa MKYP cells [2]; Homo sapiens, HeLa, Table 4, read-out: Potency (EC50 Max Mitophagy)): 9.1 µM |
| C[C@@H](Nc1ncnc2[nH]cnc12)c1ccccc1 [Compound 63] | 11.5 |  |  |  | Toxicity (% positive for DAPI take-up at 50 μM)* (HeLa MKYP cells [1]; listed as EP-0036422): 11.51%; EC50 (HeLa MKYP cells [2]; Table 3, read-out: Potency at 1 μM F/O toxin* (EC50 of mitophagy activation)): 47.4 µM; EC50 (HeLa MKYP cells [2]; Table 3 Supplement A, as measured in Table 3, read-out: Potency (EC50 Max Mitophagy) (μM)*): > 25 µM |
| c1ccc2c(c1)OCC2Nc1ncnc2[nH]cnc12 (centres unmarked) [Compound 53] | 21.0 | 20.95 | 6.1 | 6.11 |  |
| FC(F)(F)c1cc2c(NCc3cnccn3)ncnc2[nH]1 [Compound 21] | 0.9 |  |  |  | activation at 6.3 µM (HeLa MKYP cells [2]; Homo sapiens, HeLa, Table 3): 9.1% |
| c1coc(CNc2ncnc3[nH]c(C4CCC4)nc23)c1 [Compound 30] | 3.0 |  | > 50 |  |  |
| FC(F)(F)c1cc2c(NCc3cncnc3)ncnc2[nH]1 [Compound 19] |  |  |  |  | Toxicity (% positive for DAPI takeup @ 50 μM) (HeLa MKYP cells [1]; human): 1.7%; activation at 6.3 µM (HeLa MKYP cells [2]; Homo sapiens, HeLa, Table 3): 50.3% |
| COc1ccccc1CNc1ncnc2[nH]c(C(F)(F)F)cc12 [Compound 48] | 24.7 |  | 2 |  |  |
| C[C@@H](Nc1ncnc2[nH]c(C3CC3)nc12)c1ccccc1 [Compound 47] | 12.3 | 12.33 | > 50 | > 25 |  |
| COc1ccc2c(c1)CCCC2Nc1ncnc2[nH]c(C(F)(F)F)cc12 (centres unmarked) [Compound 14] |  |  |  |  | Toxicity (% positive for DAPI takeup @ 50 μM) (HeLa MKYP cells [1]; Table 2): 95.5%; activation at 1.6 µM (HeLa MKYP cells [2]; Homo sapiens, HeLa): 29.8% |
